Test results reported in US10124004B2, “Pyrido[3,4-d]pyrimidine derivative and pharmaceutically acceptable salt thereof” (Teijin Pharma Limited, priority 2015, dated 2018).
pIC50: −log10 of the molar value.

target: T1, CDK4/cyclin D3 (Homo sapiens, UniProt P11802); test: Human CDK4/cyclin D3 inhibitory activity (QS S Assist CDK4/Cyclin D3_FP Kit, IMAP fluorescence polarization); format: biochemical; settings: 50% inhibitory concentration against CDK4/cyclin D3, given as class symbol
T1 construct: purchased Carna Biosciences, Inc. QS S Assist CDK4/Cyclin D3_FP Kit
T1 sequence (P11802 whole entry): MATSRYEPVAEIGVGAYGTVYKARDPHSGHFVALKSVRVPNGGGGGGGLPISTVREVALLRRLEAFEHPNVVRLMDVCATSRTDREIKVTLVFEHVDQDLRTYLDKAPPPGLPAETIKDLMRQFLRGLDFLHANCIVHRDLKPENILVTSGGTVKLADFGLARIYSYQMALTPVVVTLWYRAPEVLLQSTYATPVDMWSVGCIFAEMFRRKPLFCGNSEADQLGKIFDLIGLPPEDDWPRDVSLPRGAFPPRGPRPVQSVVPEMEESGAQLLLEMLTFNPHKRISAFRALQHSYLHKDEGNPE
T1 sequence (P30281 whole entry partner): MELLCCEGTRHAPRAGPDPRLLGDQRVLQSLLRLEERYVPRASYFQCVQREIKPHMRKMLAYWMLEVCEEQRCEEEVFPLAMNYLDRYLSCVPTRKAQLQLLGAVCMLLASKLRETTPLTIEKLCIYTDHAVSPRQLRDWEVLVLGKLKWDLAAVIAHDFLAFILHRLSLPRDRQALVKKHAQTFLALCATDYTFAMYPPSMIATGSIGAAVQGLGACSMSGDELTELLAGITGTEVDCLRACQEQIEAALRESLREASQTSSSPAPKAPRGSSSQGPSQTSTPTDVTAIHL
Experimental: Human CDK4/Cyclin D3 Inhibitory Activity
Each compound was analyzed for CDK4/cyclin D3 inhibitory activity with an assay kit (QS S Assist CDK4/Cyclin D3_FP Kit, available from Carna Biosciences, Inc.). This assay kit determines kinase activity on the basis of the IMAP technology by Molecular Devices. Specifically, the kinase activity is determined through quantification of a variation in fluorescent polarization caused by binding of a kinase-phosphorylated fluorescent substance to an IMAP-binding reagent.
Each solution was prepared with the 10× assay buffer attached to the kit or a separately prepared assay buffer having the same composition as the assay buffer attached to the kit. An assay buffer was prepared by 10-fold dilution of the 10× assay buffer with distilled water. The assay buffer contains 20 mM HEPES (pH 7.4), 0.01% Tween20, and 2 mM dithiothreitol. A test compound solution was prepared by dilution of the test compound with dimethyl sulfoxide (DMSO) to a concentration 100 times higher than the final concentration and then 25-fold dilution with the assay buffer to a concentration four times higher than the final concentration. An ATP/substrate/Metal solution was prepared by five-fold dilution of the 5×ATP/substrate/Metal solution attached to the kit with the assay buffer. An enzyme solution was prepared by dilution of the CDK4/cyclin D3 attached to the kit with the assay buffer to a concentration twice higher than the final concentration (final concentration of CDK4/cyclin D3:12.5 to 25 ng/well). A detection reagent was prepared by five-fold dilution of each of 5× IMAP-binding buffer A and 5×IMAP-binding buffer B with distilled water, mixing of IMAP-binding buffer A with IMAP-binding buffer B at a ratio of 85:15, and 400-fold dilution of the IMAP-binding reagent with the mixed buffer.
The test compound solution (5 μL/well) and the ATP/substrate/Metal solution (5 μL/well) were added to a 384-well plate, and the enzyme solution or the assay buffer (10 μL/well) was added to the plate (total amount of the reaction mixture: 20 μL/well) for initiation of enzymatic reaction. […] The reaction was performed at room temperature for 45 minutes, and the detection reagent (60 μL/well) was then added to the plate, followed by further reaction for 30 minutes at room temperature under light shielding conditions. Subsequently, fluorescent polarization was determined with a microplate reader at an excitation wavelength of 485 nm and an emission wavelength of 535 nm.
The percent inhibition of enzyme activity was calculated for each test compound (note: enzyme activity=100% in the case of addition of the enzyme solution and addition of DMSO instead of the test compound solution, whereas enzyme activity=0% in the case of addition of the assay buffer instead of the enzyme solution, and addition of DMSO instead of the test compound solution). The percent inhibition of enzyme activity was fitted to a dose-response curve, to determine a 50% inhibitory concentration against CDK4/cyclin D3.
In each table, “+++” corresponds to IC50<10 nM, “++” 10 nM≤IC50<100 nM, and “+” 100 nM≤IC50.

| SMILES | pIC50 |
| --- | --- |
| CC(C)Nc1nc(C(C)O)cc2cnc(Nc3ccc(N4CCC(O)C(C)C4)nn3)nc12 (single isomer, unassigned) [Compound 705] | > 8.00 |
| CO[C@H](C)c1cc2cnc(Nc3ccc(N4CCN(CCC(=O)O)CC4)nn3)nc2c(NC(C)C)n1 [Compound 684, (R)-3-(4-(6-((8-(isopropylamino)-6-(l-methoxyethyl)pyrido[3,4-d]pyrimidin-2-yl)amino)pyridazin-3-yl)piperazin-1-yl)propanoic acid] | 7.00 to 8.00 |
| CC(O)c1cc2cnc(Nc3ccc(OCCN(C)C)cn3)nc2c(NC2CCC(C)(C)OC2)n1 (single isomer, unassigned) [Compound 689] | > 8.00 |
| CC(C)Nc1nc([C@@H](C)O)cc2cnc(Nc3ccc(N4CC5CC(C4)C5O)nn3)nc12 (stereo partly shown) [Compound 687] | > 8.00 |
| CO[C@H](C)c1cc2cnc(Nc3ccc(CN4CCN(CCC(=O)O)CC4)cn3)nc2c(NC(C)C)n1 [Compound 685] | 7.00 to 8.00 |

same assay, conditions: Human CDK4/cyclin D3 inhibitory activity; read-out: CDK4 Activity symbol

| SMILES | pIC50 |
| --- | --- |
| COC(C)c1cc2cnc(Nc3ccc(CN4CCNCC4)cn3)nc2c(NC[C@H]2CCCO2)n1 (stereo partly shown) [Compound 411] | > 8.00 |
| CC(C)Nc1nc([C@@H](C)O)cc2cnc(Nc3ccc(N4CCNC(C)(C)C4=O)cn3)nc12 [Compound 440] | 7.00 to 8.00 |
| CC(C)Nc1nc([C@@H](C)O)cc2cnc(Nc3ccc(O[C@H]4CNCC[C@@H]4F)nn3)nc12 [Compound 547] | > 8.00 |
| COC(C)c1cc2cnc(Nc3ccc(CN4CCNCC4)cn3)nc2c(NCC2CC(F)(F)C2)n1 (stereo not shown) [Compound 465] | > 8.00 |
| CNCCCOc1ccc(Nc2ncc3cc([C@@H](C)O)nc(NC(C)C)c3n2)nc1 [Compound 528] | > 8.00 |
| CC(C)Nc1nc([C@@H](C)O)cc2cnc(Nc3ccc(N4CCC(O)C(F)(F)C4)nn3)nc12 (stereo partly shown) [Compound 617] | > 8.00 |
| COC(C)c1cc2cnc(Nc3ccc(CN4CCNCC4)cn3)nc2c(NCCN2CCNC2=O)n1 (stereo not shown) [Compound 393] | 7.00 to 8.00 |
| CC(C)Nc1nc([C@@H](C)O)cc2cnc(Nc3ccc(N4CCN(CC(C)(C)C)CC4)nn3)nc12 [Compound 587] | > 8.00 |
| CC(C)Nc1nc([C@@H](C)O)cc2cnc(Nc3ccc(N4CCC(N5CCOCC5)CC4)nn3)nc12 [Compound 520] | > 8.00 |
| COC(C)c1cc2cnc(Nc3ccc(CN4CCNCC4)cn3)nc2c(NCCC2CCCCO2)n1 (stereo not shown) [Compound 430] | > 8.00 |
| CC(C)Nc1nc([C@@H](C)O)cc2cnc(Nc3ccc(N4CCCN(C)CC4)nn3)nc12 [Compound 490] | > 8.00 |
| CO[C@H](C)c1cc2cnc(Nc3ccc(N4CC5(CCN5)C4)cn3)nc2c(NC(C)C)n1 [Compound 478] | > 8.00 |
| COC(C)c1cc2cnc(Nc3ccc(CN4CCNCC4)cn3)nc2c(N[C@H]2CC[C@H](OC(C)C)CC2)n1 (stereo partly shown) [Compound 464] | > 8.00 |
| COC(C)c1cc2cnc(Nc3ccc(CN4CCNCC4)cn3)nc2c(NC2(CO)CCCC2)n1 (stereo not shown) [Compound 413] | > 8.00 |
| CC(C)Nc1nc([C@@H](C)O)cc2cnc(Nc3ccc(OCC4CNC4)cn3)nc12 [Compound 570] | > 8.00 |
| O[C@H]1CC[C@@H](Nc2nc(C(F)F)cc3cnc(Nc4ccc(N5CCNCC5)nn4)nc23)CC1 [Compound 425] | > 8.00 |
| CC(C)Nc1nc(C(C)O)cc2cnc(Nc3ccc(OC4CNCCC4F)cn3)nc12 (stereo not shown) [Compound 577] | > 8.00 |
| COC(C)c1cc2cnc(Nc3ccc(CN4CCNCC4)cn3)nc2c(Nc2ccc(C(=O)O)cc2)n1 (stereo not shown) [Compound 448] | ≤ 7.00 |
| CC(C)Nc1nc([C@@H](C)O)cc2cnc(Nc3ccc(SCCN(C)C)cn3)nc12 [Compound 580] | 7.00 to 8.00 |
| CC(C)Nc1nc([C@@H](C)O)cc2cnc(Nc3ccc(OCC4(F)CNC4)cn3)nc12 [Compound 578] | > 8.00 |
| CCC(C)Nc1nc(C(C)OC)cc2cnc(Nc3ccc(CN4CCNCC4)cn3)nc12 (stereo not shown) [Compound 423] | > 8.00 |
| COC(C)c1cc2cnc(Nc3ccc(N4CCCNCC4)cn3)nc2c(NC(C)C)n1 (stereo not shown) [Compound 453] | > 8.00 |
| CC(C)Nc1nc(C(C)O)cc2cnc(Nc3ccc(N4CCC(O)C(F)C4)nn3)nc12 (stereo not shown) [Compound 607] | > 8.00 |
| COC(C)c1cc2cnc(Nc3ccc(CN4CCNCC4)cn3)nc2c(NCCN2CCCC2=O)n1 (stereo not shown) [Compound 414] | 7.00 to 8.00 |

| SMILES | pIC50 |
| --- | --- |
| CN(C)CCOc1ccc(Nc2ncc3cc(C(F)F)nc(N[C@H]4CC[C@@H](O)CC4)c3n2)nc1 [Compound 426] | > 8.00 |
| CO[C@H](C)c1cc2cnc(Nc3ccc(OCCN(C)C)nn3)nc2c(NC(C)C)n1 [Compound 471] | 7.00 to 8.00 |
| CC(C)Nc1nc([C@@H](C)O)cc2cnc(Nc3ccc(O[C@H]4CCNC[C@@H]4F)nn3)nc12 [Compound 563] | > 8.00 |
| COC(C)c1cc2cnc(Nc3ccc(CN4CCNCC4)cn3)nc2c(Nc2cccc(C#N)c2)n1 (stereo not shown) [Compound 412] | > 8.00 |
| COC(C)c1cc2cnc(Nc3ccc(CN4CCNCC4)cn3)nc2c(NC2CC3(C2)CC(C(=O)O)C3)n1 (stereo not shown) [Compound 513] | 7.00 to 8.00 |
| CO[C@H](C)c1cc2cnc(Nc3ccc(N4CC5(CCC5)C4)cn3)nc2c(NC(C)C)n1 [Compound 480] | 7.00 to 8.00 |
| CC1(C)NCCN(c2ccc(Nc3ncc4cc(C(F)F)nc(N[C@H]5CC[C@H](C(=O)O)CC5)c4n3)nc2)C1=O [Compound 442] | ≤ 7.00 |
| CC(C)Nc1nc([C@@H](C)O)cc2cnc(Nc3ccc(N4CCCC(O)C4)nn3)nc12 (stereo partly shown) [Compound 517] | > 8.00 |
| CO[C@H](C)c1cc2cnc(Nc3ccc(N4C5CCC4CC(N)C5)cn3)nc2c(NC(C)C)n1 (stereo partly shown) [Compound 502] | > 8.00 |
| CC(C)Nc1nc([C@@H](C)O)cc2cnc(Nc3ccc(O[C@H]4CNC[C@@H]4F)nn3)nc12 [Compound 545] | > 8.00 |
| CO[C@H](C)c1cc2cnc(Nc3ccc(OC4CCNCC4(F)F)cn3)nc2c(NC(C)C)n1 (stereo partly shown) [Compound 473] | 7.00 to 8.00 |
| CC(C)Nc1nc([C@@H](C)O)cc2cnc(Nc3ccc(N(C)C(=O)CN)cn3)nc12 [Compound 538] | > 8.00 |
| CC(C)Nc1nc([C@@H](C)O)cc2cnc(Nc3ccc(OC4CNC4)nn3)nc12 [Compound 546] | > 8.00 |
| COC(C)c1cc2cnc(Nc3ccc(CN4CCNCC4)cn3)nc2c(NC23CC4CC(CC(O)(C4)C2)C3)n1 (stereo not shown) [Compound 455] | > 8.00 |
| COC(C)c1cc2cnc(Nc3ccc(CN4CCNCC4)cn3)nc2c(NCCC2CCCOC2)n1 (stereo not shown) [Compound 431] | > 8.00 |
| COC(C)c1cc2cnc(Nc3ccc(CN4CCNCC4)cn3)nc2c(NC2(CO)CCCCC2)n1 (stereo not shown) [Compound 434] | > 8.00 |
| COC(C)c1cc2cnc(Nc3ccc(CN4CCNCC4)cn3)nc2c(NC2CCC(=O)NC2)n1 (stereo not shown) [Compound 421] | 7.00 to 8.00 |
| CC1(C)NCCN(c2ccc(Nc3ncc4cc(C(F)F)nc(N[C@H]5CC[C@H](O)CC5)c4n3)nc2)C1=O [Compound 443] | 7.00 to 8.00 |
| CC(C)Nc1nc([C@@H](C)O)cc2cnc(Nc3ccc(CC(=O)N4CCN(CCO)CC4)cn3)nc12 [Compound 616] | > 8.00 |
| CC(C)Nc1nc([C@@H](C)O)cc2cnc(Nc3ccc(OC4CNC4)cn3)nc12 [Compound 568] | > 8.00 |
| COC(C)c1cc2cnc(Nc3ccc(OCC4(N)CC4)cn3)nc2c(NC(C)C)n1 (stereo not shown) [Compound 457] | > 8.00 |
| CNC(=O)CNc1ccc(Nc2ncc3cc([C@@H](C)O)nc(NC(C)C)c3n2)nc1 [Compound 539] | 7.00 to 8.00 |
| COC(C)c1cc2cnc(Nc3ccc(CN4CCNCC4)cn3)nc2c(NC2CCCC2)n1 (stereo not shown) [Compound 417] | > 8.00 |
